In paper PMC11187827 (Journal of natural products, 2020):

Legend:
[1] = target: T1, sigma-2 receptor (σ 2) (Rattus norvegicus, UniProt Q5U3Y7); assay: receptor binding assay
T1 sequence (Q5U3Y7 1-176): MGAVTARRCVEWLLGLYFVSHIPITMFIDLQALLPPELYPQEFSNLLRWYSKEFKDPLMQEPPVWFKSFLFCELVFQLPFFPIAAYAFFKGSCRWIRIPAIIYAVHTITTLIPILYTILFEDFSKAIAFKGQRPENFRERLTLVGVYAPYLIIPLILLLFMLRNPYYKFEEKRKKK

[2] = test system: male Swiss Webster mice; assay: forced-swim test; format: in vivo, mouse; settings: 20 mg/kg, i.p., relative to desipramine (20 mg/kg)
[3] = test system: male Swiss Webster mice; assay: locomotor activity test; format: in vivo, mouse; settings: 20 mg/kg, i.p.
[4] = target: DAT (dopamine transporter) (Homo sapiens, UniProt Q01959); assay: receptor binding assay
DAT (dopamine transporter), sequence (Q01959 whole entry, species assumed): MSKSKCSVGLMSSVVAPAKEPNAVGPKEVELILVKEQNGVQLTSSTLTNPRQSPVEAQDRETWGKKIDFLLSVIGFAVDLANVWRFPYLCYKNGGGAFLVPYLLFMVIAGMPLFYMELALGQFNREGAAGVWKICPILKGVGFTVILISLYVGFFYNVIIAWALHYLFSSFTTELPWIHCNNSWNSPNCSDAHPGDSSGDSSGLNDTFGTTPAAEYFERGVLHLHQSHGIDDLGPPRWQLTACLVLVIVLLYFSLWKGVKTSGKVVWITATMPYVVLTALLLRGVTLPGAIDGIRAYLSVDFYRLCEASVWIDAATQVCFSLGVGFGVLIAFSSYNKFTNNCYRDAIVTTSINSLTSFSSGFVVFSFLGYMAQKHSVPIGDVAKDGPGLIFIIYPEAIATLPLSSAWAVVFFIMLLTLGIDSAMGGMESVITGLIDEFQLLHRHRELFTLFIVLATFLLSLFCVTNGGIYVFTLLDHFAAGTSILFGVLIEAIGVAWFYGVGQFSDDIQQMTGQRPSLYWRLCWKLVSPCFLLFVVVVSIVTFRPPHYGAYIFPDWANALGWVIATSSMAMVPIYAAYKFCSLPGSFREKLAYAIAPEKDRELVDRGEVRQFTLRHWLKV

[5] = target: NET (norepinephrine transporter) (Homo sapiens, UniProt P23975); assay: receptor binding assay
NET (norepinephrine transporter), sequence (P23975 whole entry): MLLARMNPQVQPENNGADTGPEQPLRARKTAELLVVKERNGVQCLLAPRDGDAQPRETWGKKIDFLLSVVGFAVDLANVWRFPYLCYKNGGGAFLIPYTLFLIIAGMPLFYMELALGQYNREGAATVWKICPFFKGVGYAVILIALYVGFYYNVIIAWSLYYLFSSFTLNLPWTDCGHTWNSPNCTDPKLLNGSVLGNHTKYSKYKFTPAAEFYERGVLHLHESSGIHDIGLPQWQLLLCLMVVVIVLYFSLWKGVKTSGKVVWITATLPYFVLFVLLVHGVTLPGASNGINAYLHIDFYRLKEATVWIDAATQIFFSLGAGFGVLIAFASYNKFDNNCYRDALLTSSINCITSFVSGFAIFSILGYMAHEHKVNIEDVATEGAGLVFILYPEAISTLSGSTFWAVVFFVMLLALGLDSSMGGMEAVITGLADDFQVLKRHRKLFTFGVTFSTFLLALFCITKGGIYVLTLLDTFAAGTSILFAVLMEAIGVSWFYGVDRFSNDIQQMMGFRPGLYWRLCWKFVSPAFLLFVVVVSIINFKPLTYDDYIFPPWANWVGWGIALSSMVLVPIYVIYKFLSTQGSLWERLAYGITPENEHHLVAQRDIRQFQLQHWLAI

[6] = target: SERT (serotonin transporter) (Homo sapiens, UniProt P31645); assay: receptor binding assay
SERT (serotonin transporter), sequence (P31645 whole entry, species assumed): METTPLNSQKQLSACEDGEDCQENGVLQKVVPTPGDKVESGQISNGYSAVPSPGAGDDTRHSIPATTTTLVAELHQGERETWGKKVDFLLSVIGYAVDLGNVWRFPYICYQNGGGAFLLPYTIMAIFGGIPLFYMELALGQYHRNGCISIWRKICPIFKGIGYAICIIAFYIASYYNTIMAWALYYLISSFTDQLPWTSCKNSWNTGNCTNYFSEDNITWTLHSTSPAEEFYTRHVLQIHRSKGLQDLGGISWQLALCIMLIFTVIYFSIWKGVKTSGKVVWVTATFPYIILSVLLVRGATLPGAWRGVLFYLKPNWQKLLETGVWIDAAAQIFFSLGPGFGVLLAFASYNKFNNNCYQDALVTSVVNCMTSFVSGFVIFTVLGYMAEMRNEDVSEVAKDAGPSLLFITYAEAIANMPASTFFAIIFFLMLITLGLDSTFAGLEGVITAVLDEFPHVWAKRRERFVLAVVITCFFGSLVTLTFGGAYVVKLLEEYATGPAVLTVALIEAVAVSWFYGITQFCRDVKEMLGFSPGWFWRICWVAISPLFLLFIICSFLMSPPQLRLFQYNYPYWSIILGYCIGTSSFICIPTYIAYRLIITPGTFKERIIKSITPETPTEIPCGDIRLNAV

For `Cc1nccc2c1C(C)(C)Nc1cc(Br)ccc1-2` [Veranamine], the “binding to the sigma-2 receptor” value [1] was “did not bind”, the “immobility time in mouse forced-swim test” value [2] was “decreasing the immobility time significantly” and the “locomotor activity (nonspecific stimulant action)” value [3] was “did not demonstrate nonspecific stimulant action”. For the same compound, the “affinity for dopamine transporter” value [4] was “no affinity”, the “affinity for norepinephrine transporter” value [5] was “no affinity” and the “affinity for serotonin transporter” value [6] was “no affinity”.
